This is an account of results in patent publication US20240292837A1, “CHROMONE DERIVATIVES AS ATTRACTANTS AND REPELLENTS OF BLOOD-SUCKING, BITING INVERTEBRATES” (CENTRE NATIONAL DE LA RECHERCHE SCIENTIFIQUE, priority 2021, published 2024).

The subject of the test is Aedes albopictus. Briefly: Evaluation of the repellent and/or attractant effect in a tunnel olfactometer. The test is classed as in vivo. The conditions noted are these: for Control (±SD), mean number of mosquitoes in the control zone / Treated/Product (±SD), mean number of mosquitoes in the treated zone / Treated (±SD), mean number of mosquitoes in the treated zone: 15 females; for RI (%) repulsion index / Repulsion index 5 mg deposition / Repulsion index 10 mg deposition / Repulsion index 30 mg deposition / KI (%) kairomone index: negative = attractant; for repellent or attractant effect (in words): over the doses tested; for repellent effect compared with Picaridin and DEET (in words): equivalent/identical doses (10 and 30 mg/ml). An excerpt: The tunnel olfactometer is a 1 m long glass parallelepiped with a 5×5 cm side. The tube is equipped with 3 openings: two on each side, one for feeding in the paper impregnated with the product to be tested, and the other for the paper containing a control. The opening in the middle is for feeding in mosquitoes. Both ends of the tube are closed by covers.
The olfactometer is divided into three compartments or zones: • a neutral zone in the middle; • a test or treated area which is on the side of depositing the product; and • a control area which is located on the side of depositing the control.
For each test, 15 Aedes albopictus females (aged 5 to 12 days) are fed into the neutral zone of the tunnel olfactometer. Mosquitoes are kept for 10 minutes for a time of adaptation. Papers impregnated and dried with a solution of product in ethanol and pure ethanol as a reference are fed in, then the barriers are opened to allow mosquitoes to circulate freely inside the tube. Three test repetitions were carried out for each product. A repetition lasts 20 minutes and the results observed were recorded every 5 minutes.
The values measured are the activity index and the repulsion index. The activity index (Al) describes the percentage of mosquitoes in the control zone (T) and in the treated zone (P) with respect to the total number of mosquitoes tested. Said value should be greater than 30% for the test to be considered significant.
The repulsion index (RI) represents the percentage of the difference in the number of mosquitoes in the control part and in the treated part divided by the sum of the two values. A negative value of the parameter (RI) indicates an attractant activity (kairomone index. KI) of the product tested.
[formula] • Al: Activity index • RI: Repulsion index • T: Number of mosquitoes in the control area • P: Number of mosquitoes in the treated area

For the molecule `CCC(C)Oc1ccc2c(=O)ccoc2c1` (racemic) [7-sec-butoxychromone], the “repellent or attractant effect (in words)” value was “repellent at any dose”. Under “dose 5 mg/ml”, the “AI (%) activity index” value turned out to be 71.1%; the “Treated/Product (±SD), mean number of mosquitoes in the treated zone” value (shortened to “Treated/Product (±SD), mean number”) amounted to 3.3 ± 0.1; the “RI (%) repulsion index” value worked out at 37.6%. For the setting “dose 5 mg/ml in treated zone”, the “Control (±SD), mean number of mosquitoes in the control zone” value (“Control (±SD), mean number of mosquitoes” for short) is given as 7.3 ± 0.4. Moreover, under “dose 10 mg/ml”, the “AI (%) activity index” value is 71.8%; the “Treated/Product (±SD), mean number” value is listed as 3.6 ± 0.4; the “RI (%) repulsion index” value stood at 37.9%. In addition, for the setting “dose 10 mg/ml in treated zone”, the “Control (±SD), mean number of mosquitoes” value is reported as 7.2 ± 0.9. Under “dose 30 mg/ml”, the “AI (%) activity index” value came to 78%; the “Treated/Product (±SD), mean number” value was 3.4 ± 0.9; the “RI (%) repulsion index” value worked out at 56.1%. For the same molecule, the “Control (±SD), mean number of mosquitoes” value (dose 30 mg/ml in treated zone) was found to be 8.3 ± 0.5. Under “dose 60 mg/ml”, the “AI (%) activity index” value came to 90.6%; the “Treated/Product (±SD), mean number” value was found to be 1.8 ± 0.2; the “RI (%) repulsion index” value was 72.9%. Also, the “Control (±SD), mean number of mosquitoes” value (dose 60 mg/ml in treated zone) is listed as 11.8 ± 0.7.

For the molecule `CCCC(C)Oc1ccc2c(=O)ccoc2c1` (racemic) [7-sec-pentoxychromone], the “Repulsion index 5 mg deposition” value is −59.2%, the “Repulsion index 10 mg deposition” value is −47.8%, the “Repulsion index 30 mg deposition” value is listed as −28.7% and the “repellent or attractant effect (in words)” value is recorded as “attractant”. In addition, where the note is “dose 1 mg/ml”, the “AI (%) activity index” value is 85%; the “Treated (±SD), mean number of mosquitoes in the treated zone” value is given as 9.3 ± 0.7; the “KI (%) kairomone index” value is −45.6%. Moreover, under “dose 1 mg/ml in treated zone”, the “Control (±SD), mean number of mosquitoes” value was 3.5 ± 0.5. Further, where the note is “dose 5 mg/ml”, the “AI (%) activity index” value was determined as 80.1%; the “Treated/Product (±SD), mean number” value was 9.5 ± 0.2; the “KI (%) kairomone index” value is −59.2%. Also, where the note is “dose 5 mg/ml in treated zone”, the “Control (±SD), mean number of mosquitoes” value turned out to be 2.5 ± 0.3. For the same molecule, for the setting “dose 10 mg/ml”, the “AI (%) activity index” value is listed as 88.3%; the “Treated/Product (±SD), mean number” value is on record as 9.8 ± 1.1; the “KI (%) kairomone index” value is −47.9%. Further, the “Control (±SD), mean number of mosquitoes” value (dose 10 mg/ml in treated zone) turned out to be 3.4 ± 0.4. Further, where the note is “dose 30 mg/ml”, the “AI (%) activity index” value was determined as 90%; the “Treated/Product (±SD), mean number” value turned out to be 8.7 ± 0.4; the “KI (%) kairomone index” value is given as −28.6%. The “Control (±SD), mean number of mosquitoes” value (dose 30 mg/ml in treated zone) came out at 4.8 ± 0.4.

`CCCCCCCCCCOc1ccc2c(=O)ccoc2c1` [7-n-decyloxychromone]: where the note is “dose 10 mg/ml”, the “AI (%) activity index” value worked out at 85%; the “Treated/Product (±SD), mean number” value is 8.8 ± 0.9; the “KI (%) kairomone index” value is −37.8 ± 5.2%. Also, the “Control (±SD), mean number of mosquitoes” value (dose 10 mg/ml in treated zone) amounted to 3.9 ± 0.3. Besides, the “attractant effect compared with a reference attractant (in words)” value (same doses) is reported as “attractant effect equivalent to that of 7-sec-nonyloxychromone”.

Regarding `CCN(CC)C(=O)c1cccc(C)c1` [DEET, reference compound], the “Repulsion index 5 mg deposition” value is 55.5%, the “Repulsion index 10 mg deposition” value worked out at 60.4% and the “Repulsion index 30 mg deposition” value worked out at 59.1%.

On to `C=CC(O)CCCCC` (centres unmarked) [Octen-3-ol, octen-3-ol, reference compound], for which the “Repulsion index 5 mg deposition” value is reported as −41.7%, the “Repulsion index 10 mg deposition” value is −54.7% and the “Repulsion index 30 mg deposition” value is −61.6%.

Take `CCC(C)OC(=O)N1CCCCC1CCO` (centres unmarked) [Picaridin, reference compound]: the “Repulsion index 5 mg deposition” value turned out to be 42.6%, the “Repulsion index 10 mg deposition” value was 49.6% and the “Repulsion index 30 mg deposition” value was found to be 59.7%.

Consider `CC[C@H](C)Oc1ccc2c(=O)ccoc2c1` [S-(+)-sec-butoxychromone], for which the “repellent or attractant effect (in words)” value is “attractant at low doses and repellent at high doses”. Also, under “dose 5 mg/ml”, the “AI (%) activity index” value was 91.7%; the “Treated/Product (±SD), mean number” value was 9.0 ± 0.2; the “RI (%) repulsion index” value is given as −31.2%. Besides, under “dose 5 mg/ml in treated zone”, the “Control (±SD), mean number of mosquitoes” value is given as 4.8 ± 0.5. Where the note is “dose 10 mg/ml”, the “AI (%) activity index” value is 87.2%; the “Treated/Product (±SD), mean number” value turned out to be 8.9 ± 1.1; the “RI (%) repulsion index” value is given as −35.8%. The “Control (±SD), mean number of mosquitoes” value (dose 10 mg/ml in treated zone) came out at 4.2 ± 0.9. Where the note is “dose 30 mg/ml”, the “AI (%) activity index” value was 83.3%; the “Treated/Product (±SD), mean number” value is 3.3 ± 0.2; the “RI (%) repulsion index” value was determined as 47.9%. Also, the “Control (±SD), mean number of mosquitoes” value (dose 30 mg/ml in treated zone) worked out at 9.3 ± 0.8. Also, under “dose 60 mg/ml”, the “AI (%) activity index” value is listed as 89.4%; the “Treated/Product (±SD), mean number” value is given as 2.0 ± 0.0; the “RI (%) repulsion index” value was 70.5%. Moreover, the “Control (±SD), mean number of mosquitoes” value (dose 60 mg/ml in treated zone) is given as 11.4 ± 0.8.

Consider `CCC[C@H](C)Oc1ccc2c(=O)ccoc2c1` [S-(+)-sec-pentoxychromone], for which the “repellent or attractant effect (in words)” value was “attractant”. In addition, under “dose 1 mg/ml”, the “AI (%) activity index” value amounted to 93.3%; the “Treated (±SD), mean number of mosquitoes in the treated zone” value is on record as 10.3 ± 0.7; the “KI (%) kairomone index” value is listed as −46.3%. Where the note is “dose 1 mg/ml in treated zone”, the “Control (±SD), mean number of mosquitoes” value was 3.8 ± 0.3. Also, where the note is “dose 5 mg/ml”, the “AI (%) activity index” value is reported as 83.9%; the “Treated/Product (±SD), mean number” value worked out at 9.5 ± 0.7; the “KI (%) kairomone index” value is −52.4%. The “Control (±SD), mean number of mosquitoes” value (dose 5 mg/ml in treated zone) was found to be 3.1 ± 1.2. Further, under “dose 10 mg/ml”, the “AI (%) activity index” value is on record as 95%; the “Treated/Product (±SD), mean number” value was 8.4 ± 0.1; the “KI (%) kairomone index” value is −18.2%. Further, the “Control (±SD), mean number of mosquitoes” value (dose 10 mg/ml in treated zone) stood at 5.8 ± 0.2. For the same molecule, for the setting “dose 30 mg/ml”, the “AI (%) activity index” value worked out at 77.8%; the “Treated/Product (±SD), mean number” value came to 6.5 ± 0.7; the “KI (%) kairomone index” value was −10.7%. The “Control (±SD), mean number of mosquitoes” value (dose 30 mg/ml in treated zone) turned out to be 5.2 ± 0.3.

R-(−)-sec-butoxychromone: the “Repulsion index 5 mg deposition” value amounted to 51%, the “Repulsion index 10 mg deposition” value is reported as 65.6%, the “Repulsion index 30 mg deposition” value turned out to be 79.5% and the “repellent or attractant effect (in words)” value is on record as “repellent at any dose”. For the same molecule, under “dose 5 mg/ml”, the “AI (%) activity index” value amounted to 84%; the “Treated/Product (±SD), mean number” value stood at 3.1 ± 0.1; the “RI (%) repulsion index” value is 51.3%. Under “dose 5 mg/ml in treated zone”, the “Control (±SD), mean number of mosquitoes” value is listed as 9.5 ± 0.3. Moreover, under “dose 10 mg/ml”, the “AI (%) activity index” value is on record as 88.9%; the “Treated/Product (±SD), mean number” value is given as 2.3 ± 0.7; the “RI (%) repulsion index” value is given as 65.6%. In addition, the “Control (±SD), mean number of mosquitoes” value (dose 10 mg/ml in treated zone) is 11 ± 0.3. For the same molecule, for the setting “dose 30 mg/ml”, the “AI (%) activity index” value amounted to 92.2%; the “Treated/Product (±SD), mean number” value is 1.4 ± 0.1; the “RI (%) repulsion index” value turned out to be 79.5%. Also, the “Control (±SD), mean number of mosquitoes” value (dose 30 mg/ml in treated zone) is recorded as 12.4 ± 0.1. Where the note is “dose 60 mg/ml”, the “AI (%) activity index” value was 92%; the “Treated/Product (±SD), mean number” value is on record as 1.6 ± 0.2; the “RI (%) repulsion index” value was found to be 76.6%. For the same molecule, under “dose 60 mg/ml in treated zone”, the “Control (±SD), mean number of mosquitoes” value came to 12.2 ± 0.1. For the same molecule, for the setting “listed as (R) 7-sec-butoxychromone”, the “repellent effect compared with Picaridin and DEET (in words)” value is “as effective and more effective than Picaridin and DEET”. Besides, the “repellent effect compared with Picaridin and DEET (in words)” value (listed as enantiomer R) was “as significant as DEET and picaridin”.
